Data: patent US8974806B2, “Method for producing aqueous active substance compositions of active substances that are hardly soluble in water” (priority 2004, dated 2015)

What was measured:
Poria placenta FPRL 280 = test: Agar block method (Bravery test, similar to EN 113) on Southern Yellow Pine wood samples; format: cell-based; conditions: P. placenta, 6 weeks, weight loss <3% = sufficient protection
Procedure: (§1) The activity threshold of the composition according to the invention from example 1 against wood-destroying Basidiomycetes was determined by the agar block method on wood samples from Pinus spp. (Southern Yellow Pine) of the dimensions 40×15×4 mm^3. The test method with wood samples reduced in size, known as bravery test, is very similar to EN 113 and serves to determine the prophylactic action of wood preservatives against wood-destroying fungi (see A. F. Bravery, Intern. Res. Group Wood Pres., Doc. No. IRG/WP/2113, 5S., Stockholm 1978). For comparison, a solution of epoxiconazole in acetone was tested under the same conditions.
(§2) The wood samples impregnated with the composition according to the invention were, with and without leaching stress, tested according to EN 84. The test was carried out using four different active compound concentrations and in each case 5 parallel samples per active compound concentration and test fungus. The test fungi used were Coniophora puteana BAM Ebw. 15, Poria placenta FPRL 280 and Coriolus versicolor CTB 863A. The destruction of the wood caused by the fungal attack was evaluated using the weight loss of the sample woods, which was determined after 6 weeks. If the weight loss is less than 3% by weight, based on the initial dry weight of the test sample, the protection of the wood achieved by the preservative at a certain active compound concentration is considered to be sufficient. The activity concentration threshold is stated in two concentrations.
(§3) The values determined for a solution of the active compound in acetone are shown for comparison.

[1] = tested on: Coniophora puteana BAM Ebw. 15; test: as above; format: cell-based; conditions: C. puteana, 6 weeks, weight loss <3% = sufficient protection
Procedure: as §1, §2, §3

[2] = tested on: wood-destroying soil termites (Reticulitermes santonensis); test: Forced termite test on treated Southern Yellow Pine wood samples (AWPA E1-97) after leaching stress (DIN EN 84); format: in vivo; conditions: after leaching (DIN EN 84); 4-week test; lower value = wood no longer sufficiently protected, higher value = minimum concentration for complete protection (score 10)
Procedure: Using water, the aqueous active compound composition according to the invention from example 5 was diluted to three different active compound concentrations. For comparison, α-cypermethrin was dissolved in acetone, and the solution was diluted to the corresponding active compound concentrations using further acetone.
To determine the activity thresholds of the composition according to the invention against wood-destroying soil termites (Reticulitermes santonensis), wood samples from Pinus spp. of the dimensions 25×25×6 mm^3 (Southern Yellow Pine), which met the American test standard AWPA E1-97 (see “Standard method for laboratory evaluation to determine resistance to subterranean termites”, American Wood-Preservers' Association, 2001) were tested in a forced test after leaching stress according to DIN EN 84: 1997-01 (see “accelerated aging of treated wood prior to biological testings”, European Committee for Standardization).
The destruction of the wood caused by the termite attack was, after a 4-week test period, evaluated by visual scoring of the sample woods in accordance with AWPA E1-97. In addition, the mortality rate among the termites was estimated. […]
For the aqueous active compound composition according to the invention, the threshold for α-cypermethrin after leaching was determined to be 9-21 g/m^3. […]

Compound	Activity thresholds, with leaching (Poria placenta FPRL 280; with leaching (EN 84))	Activity thresholds, without leaching (Poria placenta FPRL 280; without leaching) [g/m^3]	Activity thresholds, with leaching ([1]; with leaching (EN 84))	Activity thresholds, without leaching ([1]; without leaching) [g/m^3]	threshold for α-cypermethrin after leaching [2]
Fc1ccc([C@]2(Cn3cncn3)O[C@H]2c2ccccc2Cl)cc1 (racemic) [Solution of epoxiconazole, epoxiconazole]	110-180 g/m^3	<190	110-160 g/m^3	<190	–
CC1(C)C(C=C(Cl)Cl)C1C(=O)OC(C#N)c1cccc(Oc2ccccc2)c1 (stereo not drawn) [α-cypermethrin]	–	–	–	–	above 21 g/m^3
